Earlier results, collected in patent US20160311826A1, “SGC STIMULATORS” (IRONWOOD PHARMACEUTICALS, INC., priority 2013, published 2016).

Legend:
[1] = test system: obese mice; conditions: cited from earlier work
[2] = test system: NO-deficient rats; conditions: cited from earlier work
[3] = test system: sickle mice; conditions: oral, high doses; cited from earlier work
[4] = test system: mdx mouse; conditions: cited from earlier work
[5] = test system: dystrophin-deficient zebra fish; conditions: cited from earlier work
[6] = test system: sickle cell disease patients with PHT; conditions: cited from earlier work
[7] = test system: adult sickle cell disease patients; conditions: infusions; cited from earlier work

O=C(O)CCCCN(CCc1cc(F)ccc1OCc1ccc(-c2ccc(C(F)(F)F)cc2)cc1)Cc1ccc(C(=O)O)cc1 [BAY 60-2770]
overactive bladder [1]: ameliorates overactive bladder in obese mice

Nc1nc(-c2nn(Cc3ccccc3F)c3ncccc23)ncc1C1CC1 [BAY-2272]
bladder dysfunction [2]: protective effects

N=C(N)NCCC[C@H](N)C(=O)O [L-aminine]
Gardos channel activity, dense cell formation, hemolysis, vascular reactivity [3]: decrease Gardos channel activity, dense cell formation and homolysis, as well as functional improvements in vascular reactivity

CCCc1nn(C)c2c(=O)[nH]c(-c3cc(S(=O)(=O)N4CCN(C)CC4)ccc3OCC)nc12 [sildenafil]
cardiac dynamics ([4]; mdx mice): improve cardiac dynamics | muscle ischemia, injury and fatigue after a brief bout of exercise ([4]; mdx mouse): alleviate muscle ischemia, as well as injury and fatigue | dystrophic skeletal muscle and survival [5]: rescue dystrophic skeletal muscle and prolong survival | PAP and exercise capacity ([6]; preliminary studies, sickle cell disease patients with severe PHT): improvements in PAP and exercise capacity | serious side effects (Walk-PHaSST trial) ([6]; sickle cell disease patients with Doppler-defined PHT, trial stopped prematurely): higher frequency of serious side effects, including increased rates of VOE, headache, and visual disturbance

O=NO [sodium nitrite]
forearm blood flow [7]: enhanced forearm blood flow
